Assay results from paper PMC5717258, “Bioaccumulation of pharmaceuticals and personal care product chemicals in fish exposed to wastewater effluent in an urban wetland” (Scientific Reports, 2017).

Columns and labels:
in vivo = conditions: for concentration at 21 days: goldfish (Carassius auratus)
Procedure, shortened: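 Pooled caged-goldfish plasma, wild-fish plasma (2.3–2.5 g) and water samples were spiked with isotope-labelled surrogates, then extracted (acetonitrile sonication for plasma; pH-adjusted water) and cleaned up by HLB SPE. PPCPs were quantified by LC/ESI-MS/MS using isotope dilution. Non-detects were set to ½ DL when the analyte was detected in ≥2 samples.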

[1] = Plasma bioaccumulation factor (BAFP), goldfish; format: in vivo, goldfish (Carassius auratus)
Procedure, shortened: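 BAFP in goldfish was calculated as plasma concentration (ng/g × 1000) divided by water concentration (ng/L).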

[2] = for Cootes carp plasma, range of concentrations / wild goldfish plasma, range of concentrations: Cootes Paradise Marsh; for plasma concentration, CPM-C 01: Cootes carp 01, 2011, male; for plasma concentration, CPM-C 2: Cootes carp 2, Sep 27, 2011, male; for plasma concentration, CPM-C 10: Cootes carp 10, Sep 28, 2011, female; for plasma concentration, CPM-C 13: Cootes carp 13, Sep 28, 2011, female; for plasma concentration, CPM-C 20: Cootes carp 20, 2011, male; for plasma concentration, CPM-C 36: Cootes carp 36, Oct 3, 2011, female; for plasma concentration, carp, this study (mean) / plasma concentration, goldfish, this study (mean): Table S8; for plasma concentration, CPM wild-01: wild goldfish sample 01, 2012, wet weight; for plasma concentration, CPM wild-02: wild goldfish sample 02, 2012, wet weight; for plasma concentration, CPM wild-03: wild goldfish sample 03, 2012, wet weight
[3] = human, ref Schulz et al.[56], cited from earlier work; for Therapeutic "normal" blood-plasma/serum concentration: converted from µg/mL
[4] = ref Meador et al. 18; cited from earlier work
[5] = parameters: method as in US EPA Chemistry Dashboard; conditions: ref US EPA Chemistry Dashboard; cited from earlier work
[6] = cited from earlier work
[7] = Jordan Harbour brown bullhead, wet weight
Procedure: Plasma from 9 individual male fish (500 µL/individual) was pooled to yield 3 samples for PPCP analysis. […] Plasma from 6 individual carp (2.3–3.5 g) from each location was selected for PPCP analysis. […] Plasma samples were frozen (−80 °C) until analysis.
A total of 20 fish plasma samples from the pooled caged fish (7) and the wild fish (13) along with 12 water samples were selected for analysis. […] A full list of analytes is provided in Supplementary Information. Mass labelled^13C-, or deuterated surrogate internal standards were used for quantification of all analytes via the isotope dilution/surrogate standard quantitation method. Prior to extraction and/or clean-up procedures, aqueous samples were adjusted to pH 2.0, spiked with extraction surrogate standards, then adjusted to pH 4 using tetrasodium ethylenediamine-tetraacetate dihydrate. Plasma samples (2.3–2.5 g) were spiked with extraction surrogate standards, sonicated with 20 mL acetonitrile, then diluted with ultra-pure water to 200 mL. The extracts were cleaned up by solid phase extraction using Oasis HLB cartridges (Waters Ltd. Mississauga ON), filtered, and analyzed by liquid chromatography-electrospray ionization-tandem mass spectrometry (LC/ESI-MS/MS) in positive or negative ionization mode. The analysis of the complete list of analytes (SI Table S1) required a total of five instrumental runs.

[8] = parameters: method as in Brown et al. 11; conditions: ref Brown et al. 11; cited from earlier work
[9] = parameters: method as in Moreno-González et al. 17; conditions: mean ± SD; ref Moreno-González et al. 17; cited from earlier work
[10] = Plasma bioaccumulation factor (BAFP), carp; format: in vivo, carp (Cyprinus carpio)
Procedure: Bioaccumulation factor (BAFP) was calculated as concentration in fish plasma (ng/g × 1000) divided by concentration in water (ng/L). Two widely used modeling approaches for predicting organic contaminant bioaccumulation were assessed: the BCF-BAF model for whole body BAFs[53] and the fish-plasma concentration calculation of Huggett et al.[35] modified by Berninger et al.[54]. The latter involves estimating an octanol-water partition coefficient (Kow) adjusted for fraction ionized (log D), using the pKa value to adjust log Kow[54] taking into account the pH of CPM waters. Further information on the calculation of log D, blood-water partitioning (PBW), and plasma concentrations (FPC) is given in the SI.

[11] = in vivo, plasma concentration, JH caged, Jordan Harbour reference site, 07-2014, pooled plasma, wet weight
[12] = conc in fish plasma/conc in water
[13] = range based on range of plasma concentrations

| Compound | concentration at 21 days (in vivo; [11]) [ng/g] | Cootes carp plasma, range of concentrations [2] [ng/g] | wild goldfish plasma, range of concentrations [2] | plasma concentration, CPM-C 01 ([2]; wet weight) [ng/g] | plasma concentration, CPM-C 2 ([2]; wet weight) [ng/g] | plasma concentration, CPM-C 10 ([2]; wet weight) [ng/g] | plasma concentration, CPM-C 13 ([2]; wet weight) [ng/g] | plasma concentration, CPM-C 20 ([2]; wet weight) [ng/g] | plasma concentration, CPM-C 36 ([2]; wet weight) [ng/g] | plasma concentration, carp, this study (mean) [2] | plasma concentration, goldfish, this study (mean) [2] | plasma concentration, CPM wild-01 [2] [ng/g] | plasma concentration, CPM wild-02 [2] [ng/g] | plasma concentration, CPM wild-03 [2] [ng/g] | Therapeutic "normal" blood-plasma/serum concentration [3] [ng/mL] | log Kow [5] | also measured |
| --- | --- | --- | --- | --- | --- | --- | --- | --- | --- | --- | --- | --- | --- | --- | --- | --- | --- |
| Cc1ccc(C)c(OCCCC(C)(C)C(=O)O)c1 [Gemfibrozil] | < 0.3 | 0.16 to 0.83 | 0.15–0.15 ng/g | 0.158 | 0.724 | 0.227 | 0.234 | 0.162 | 0.827 | 0.39 ng/g wet weight or ng/mL for plasma | 0.46 ng/g wet weight or ng/mL for plasma | 0.147 | 0.387 | 0.86 | ~25000 | 4.14 | plasma concentration, CPM1 caged (in vivo; CPM1, 07-2014, pooled plasma, wet weight): 0.15 ng/g; plasma concentration, CPM3 caged (in vivo; CPM3, 07-2014, pooled plasma, wet weight): 0.15 ng/g; concentration at 21 days (in vivo; plasma, caged goldfish plasma, range of concentrations, Cootes Paradise Marsh, range): 0.15 to 0.86 ng/g; concentration at 21 days (in vivo; plasma, plasma concentration, CPM1 caged, CPM1, 07-2014, pooled plasma, wet weight): 0.147 ng/g; concentration at 21 days (in vivo; plasma, plasma concentration, CPM2 caged, CPM2, 07-2014, pooled plasma, wet weight): 0.146 ng/g; concentration at 21 days (in vivo; plasma, plasma concentration, CPM3 caged, CPM3, 07-2014, pooled plasma, wet weight): 0.154 ng/g; BAFP, CPM2 goldfish caged ([1]; CPM2, water sample of August 2012): 27 L/kg; Carp plasma concentration, this study (range) ([2]; Table S7): 0.16 to 0.83 ng/g; Goldfish plasma concentration, this study (range) ([2]; Table S7): 0.15 to 0.86 ng/g; whole fish concentration, sculpin [4]: < mdl; Salmon (whole body) concentration ([6]; Table S7, ref Meador et al. (2016)): 1.3 ng/g; whole fish concentration, salmon ([6]; ref Meador et al. 18): 1.3 ng/g wet weight or ng/mL for plasma; plasma concentration, JH-BB [7]: < 0.57 ng/g; plasma concentration, rainbow trout [8]: <8-210 ng/g wet weight or ng/mL for plasma |
| COc1ccc(C(CN(C)C)C2(O)CCCCC2)cc1 (stereo not shown) [Venlafaxine] | < 0.08 | 0.04 to 0.27 | 0.04 to 0.17 ng/g | 0.042 | 0.086 | 0.061 | 0.063 | 0.268 | 0.057 | 0.10 ng/g wet weight or ng/mL for plasma | 0.11 ng/g wet weight or ng/mL for plasma | 0.039 | 0.258 | 0.042 | 100 to 400 | 3.28 | liver & muscle concentration, mullet [9]: 0.68 ± 1.3 ng/g wet weight or ng/mL for plasma; concentration at 21 days (in vivo; in vivo, caged goldfish plasma, range of concentrations, Cootes Paradise Marsh, range): 0.04 to 0.26 ng/g; concentration at 21 days (in vivo; in vivo, plasma concentration, CPM1 caged, CPM1, 07-2014, pooled plasma, wet weight): 0.165 ng/g; concentration at 21 days (in vivo; in vivo, plasma concentration, CPM2 caged, CPM2, 07-2014, pooled plasma, wet weight): 0.039 ng/g; concentration at 21 days (in vivo; in vivo, plasma concentration, CPM3 caged, CPM3, 07-2014, pooled plasma, wet weight): 0.041 ng/g; BAFP, CPM1 goldfish caged ([1]; CPM1): 3 L/kg; BAFP, CPM3 goldfish caged ([1]; CPM3): 52 L/kg; BAFP at CPM3, wild goldfish, average [1, 12]: 14 L/kg; BAFP at CPM3, wild goldfish, range [1, 13]: 5 to 31 L/kg; BAFP at JH, carp, average ([10]; Jordan Harbour): 64 L/kg; BAFP at CPM3, carp, average [10, 12]: 12 L/kg; BAFP at CPM3, carp, range [10, 13]: 5 to 32 L/kg; plasma concentration, JH-C 54 ([2]; Jordan Harbour carp 54, Nov 7, 2011, male, wet weight): 0.042 ng/g; plasma concentration, JH-C 73 ([2]; Jordan Harbour carp 73, Nov 7, 2011, female, wet weight): 0.041 ng/g; plasma concentration, JH-C 74 ([2]; Jordan Harbour carp 74, Nov 7, 2011, male, wet weight): 0.043 ng/g; plasma concentration, JH-C 75 ([2]; Jordan Harbour carp 75, Nov 7, 2011, female, wet weight): 0.060 ng/g; plasma concentration, JH-C 82 ([2]; Jordan Harbour carp 82, Nov 7, 2011, female, wet weight): 0.040 ng/g; toxic dose (toxic blood-plasma/serum concentration) [3]: 1000 to 1500 ng/mL |
